In assay [1] the target is Intestinal-type alkaline phosphatase (Mus musculus, UniProt P24822). The assay is described as follows: PubChem AID 488875. It counts as functional.
In assay [2] the target is T1, Intestinal-type alkaline phosphatase (Homo sapiens, UniProt P09923). The assay is described as follows: human intestinal alkaline phosphatase activators, dose response, biochemical, luminescence, uHTS hits (AID 463120). It counts as functional.
For assay [3], the target named is T1, Intestinal-type alkaline phosphatase. The assay is described as follows: activation of human intestinal alkaline phosphatase – biochemical, luminescent, uHTS hits, set 2, dose response (AID 488817).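 Further: potency of activators that raise enzyme activity.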 It counts as functional.
Assay [4] addresses T2, Alkaline phosphatase, tissue-nonspecific isozyme (Homo sapiens, UniProt P05186).
T2 sequence (P05186 whole entry): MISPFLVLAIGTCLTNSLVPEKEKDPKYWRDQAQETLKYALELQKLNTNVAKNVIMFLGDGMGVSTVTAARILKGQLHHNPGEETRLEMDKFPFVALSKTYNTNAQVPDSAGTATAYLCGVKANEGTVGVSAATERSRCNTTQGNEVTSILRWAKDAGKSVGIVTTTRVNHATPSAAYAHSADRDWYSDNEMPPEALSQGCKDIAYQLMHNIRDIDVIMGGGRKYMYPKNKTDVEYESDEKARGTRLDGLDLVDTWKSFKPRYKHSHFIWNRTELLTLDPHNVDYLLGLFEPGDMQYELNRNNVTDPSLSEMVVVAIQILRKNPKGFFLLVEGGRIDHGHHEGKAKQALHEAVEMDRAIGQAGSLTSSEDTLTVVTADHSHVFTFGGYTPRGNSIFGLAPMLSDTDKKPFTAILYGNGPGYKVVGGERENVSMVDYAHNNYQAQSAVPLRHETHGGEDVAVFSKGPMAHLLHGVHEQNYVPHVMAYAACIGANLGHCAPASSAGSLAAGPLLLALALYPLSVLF
The assay is described as follows: activation of tissue-nonspecific alkaline phosphatase – biochemical, TNAP isozyme, human IAP uHTS hits, selectivity assay for human IAP activator project, dose response (AID 488886).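 Further: potency of compounds raising TNAP activity as a selectivity check on IAP activators.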 It counts as functional.

The target in assay [5] is Phosphoethanolamine/phosphocholine phosphatase (Homo sapiens, UniProt Q8TCT1). The assay is described as follows: SAR assay for compounds that inhibit PHOSPHO1. [Related pubchem assays (depositor defined):AID1545, AID1565, AID1574].
Phosphoethanolamine/phosphocholine phosphatase, sequence (Q8TCT1 whole entry): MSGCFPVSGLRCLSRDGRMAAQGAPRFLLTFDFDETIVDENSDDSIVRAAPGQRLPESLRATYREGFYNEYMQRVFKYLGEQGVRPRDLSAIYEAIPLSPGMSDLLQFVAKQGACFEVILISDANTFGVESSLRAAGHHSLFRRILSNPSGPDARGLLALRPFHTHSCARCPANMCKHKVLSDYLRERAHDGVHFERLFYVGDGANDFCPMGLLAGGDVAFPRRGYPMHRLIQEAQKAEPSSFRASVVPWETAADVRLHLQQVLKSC
Assay [6] concerns the target T3, Neuropeptides B/W receptor type 1 (Homo sapiens, UniProt P48145).
T3 sequence (P48145 whole entry): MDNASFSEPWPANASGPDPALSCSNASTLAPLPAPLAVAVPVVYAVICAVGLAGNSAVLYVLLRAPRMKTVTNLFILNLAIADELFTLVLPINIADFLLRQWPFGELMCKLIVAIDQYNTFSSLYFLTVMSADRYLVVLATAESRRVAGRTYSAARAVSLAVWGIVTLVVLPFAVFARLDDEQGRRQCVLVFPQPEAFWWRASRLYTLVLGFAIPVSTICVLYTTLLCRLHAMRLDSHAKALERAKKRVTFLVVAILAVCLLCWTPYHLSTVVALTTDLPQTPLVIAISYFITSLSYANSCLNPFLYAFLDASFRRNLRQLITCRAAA
As to the kind of experiment: Fluorescence-based dose response cell-based high throughput screening assay to identify antagonists of the G-protein coupled receptor 7 (GPR7). [Related pubchem assays: 1952 (Screening assay (GPR7 antagonists).), 1880 (Summary AID.)]. It counts as functional.

In assay [7] the target is T4, Melanin-concentrating hormone receptor 1 (Homo sapiens, UniProt Q99705). The assay is described as follows: Fluorescence-based counterscreen for antagonists of the G-protein coupled receptor 7 (GPR7): cell-based high throughput dose response assay to identify antagonists of the melanin-concentrating hormone receptor 1 (MCHR1). It counts as functional.
T4 sequence (Q99705 whole entry): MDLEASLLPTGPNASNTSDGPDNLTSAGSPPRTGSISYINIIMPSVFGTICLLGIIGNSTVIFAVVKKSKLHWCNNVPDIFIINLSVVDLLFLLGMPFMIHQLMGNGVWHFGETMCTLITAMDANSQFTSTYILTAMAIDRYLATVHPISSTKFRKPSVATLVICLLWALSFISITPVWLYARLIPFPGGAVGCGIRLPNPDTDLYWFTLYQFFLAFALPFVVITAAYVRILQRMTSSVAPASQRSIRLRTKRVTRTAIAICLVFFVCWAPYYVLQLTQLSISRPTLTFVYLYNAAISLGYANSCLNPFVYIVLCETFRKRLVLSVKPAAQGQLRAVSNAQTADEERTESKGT
Assay [8] addresses T4, Melanin-concentrating hormone receptor 1. The assay is described as follows: Late-stage fluorescence-based counterscreen for antagonists of the G-protein coupled receptor 7 (GPR7): cell-based dose response assay to identify antagonists of the melanin-concentrating hormone receptor 1 (MCHR1). [Related pubchem assays (depositor defined):AID1861, AID1880, AID1952, AID2148, AID2251, AID2257, AID485339]. It counts as functional. A general note: Counterscreens check selectivity or assay interference.

Assay [9] addresses T3, Neuropeptides B/W receptor type 1. The assay is described as follows: human NPBW1 receptor blockade, IC50 – cell-based, fluorescence, dose response, late-stage follow-up (AID 463251). Format: functional.
The target in assay [10] is T5, Corticotropin-releasing factor receptor 2/Corticotropin-releasing factor-binding protein (Homo sapiens, UniProt P24387+Q13324).
T5 sequence (Q13324 whole entry): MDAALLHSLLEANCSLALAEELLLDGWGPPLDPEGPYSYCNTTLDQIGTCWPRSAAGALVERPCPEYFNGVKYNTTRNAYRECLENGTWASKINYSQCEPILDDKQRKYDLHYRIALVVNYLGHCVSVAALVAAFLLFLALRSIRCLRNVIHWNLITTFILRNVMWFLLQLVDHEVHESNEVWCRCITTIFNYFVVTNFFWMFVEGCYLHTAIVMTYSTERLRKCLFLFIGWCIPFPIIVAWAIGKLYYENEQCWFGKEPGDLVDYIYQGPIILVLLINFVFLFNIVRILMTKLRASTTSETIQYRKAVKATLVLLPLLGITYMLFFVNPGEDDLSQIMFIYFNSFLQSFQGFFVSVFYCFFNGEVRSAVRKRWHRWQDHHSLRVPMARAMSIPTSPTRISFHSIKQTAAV
T5 sequence (P24387 whole entry): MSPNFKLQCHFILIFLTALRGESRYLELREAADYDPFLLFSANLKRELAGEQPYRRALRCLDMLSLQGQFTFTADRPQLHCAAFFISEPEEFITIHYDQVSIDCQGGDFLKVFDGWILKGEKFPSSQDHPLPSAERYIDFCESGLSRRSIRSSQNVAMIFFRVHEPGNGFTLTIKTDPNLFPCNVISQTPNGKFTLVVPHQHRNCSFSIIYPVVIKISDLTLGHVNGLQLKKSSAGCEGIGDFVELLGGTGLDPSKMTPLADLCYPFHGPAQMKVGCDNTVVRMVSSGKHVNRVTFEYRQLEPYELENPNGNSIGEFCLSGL
As to the kind of experiment: activators of CRF receptor 2 with binding protein – uHTS hits, confirmation (AID 602473). It counts as functional. The note with it: read-out: EC50_Mean.

The target of assay [11] is T1, Intestinal-type alkaline phosphatase. The assay is described as follows: Dose Response confirmation of uHTS hits from a small molecule inhibitors of human intestinal alkaline phosphatase via a luminescent assay. [Related pubchem assays (depositor defined):AID2544, AID2574]. Format: functional.
The target of assay [12] is SWI/SNF-related matrix-associated actin-dependent regulator of chromatin subfamily A member 2 (Homo sapiens, UniProt P51531). The assay is described as follows: Luminescence-based cell-based high throughput dose response assay to identify activators of the function of SWI/SNF related, matrix associated, actin dependent regulator of chromatin, subfamily a, member 2 (SMARCA2, BRM). It counts as functional.
SWI/SNF-related matrix-associated actin-dependent regulator of chromatin subfamily A member 2, sequence (P51531 whole entry): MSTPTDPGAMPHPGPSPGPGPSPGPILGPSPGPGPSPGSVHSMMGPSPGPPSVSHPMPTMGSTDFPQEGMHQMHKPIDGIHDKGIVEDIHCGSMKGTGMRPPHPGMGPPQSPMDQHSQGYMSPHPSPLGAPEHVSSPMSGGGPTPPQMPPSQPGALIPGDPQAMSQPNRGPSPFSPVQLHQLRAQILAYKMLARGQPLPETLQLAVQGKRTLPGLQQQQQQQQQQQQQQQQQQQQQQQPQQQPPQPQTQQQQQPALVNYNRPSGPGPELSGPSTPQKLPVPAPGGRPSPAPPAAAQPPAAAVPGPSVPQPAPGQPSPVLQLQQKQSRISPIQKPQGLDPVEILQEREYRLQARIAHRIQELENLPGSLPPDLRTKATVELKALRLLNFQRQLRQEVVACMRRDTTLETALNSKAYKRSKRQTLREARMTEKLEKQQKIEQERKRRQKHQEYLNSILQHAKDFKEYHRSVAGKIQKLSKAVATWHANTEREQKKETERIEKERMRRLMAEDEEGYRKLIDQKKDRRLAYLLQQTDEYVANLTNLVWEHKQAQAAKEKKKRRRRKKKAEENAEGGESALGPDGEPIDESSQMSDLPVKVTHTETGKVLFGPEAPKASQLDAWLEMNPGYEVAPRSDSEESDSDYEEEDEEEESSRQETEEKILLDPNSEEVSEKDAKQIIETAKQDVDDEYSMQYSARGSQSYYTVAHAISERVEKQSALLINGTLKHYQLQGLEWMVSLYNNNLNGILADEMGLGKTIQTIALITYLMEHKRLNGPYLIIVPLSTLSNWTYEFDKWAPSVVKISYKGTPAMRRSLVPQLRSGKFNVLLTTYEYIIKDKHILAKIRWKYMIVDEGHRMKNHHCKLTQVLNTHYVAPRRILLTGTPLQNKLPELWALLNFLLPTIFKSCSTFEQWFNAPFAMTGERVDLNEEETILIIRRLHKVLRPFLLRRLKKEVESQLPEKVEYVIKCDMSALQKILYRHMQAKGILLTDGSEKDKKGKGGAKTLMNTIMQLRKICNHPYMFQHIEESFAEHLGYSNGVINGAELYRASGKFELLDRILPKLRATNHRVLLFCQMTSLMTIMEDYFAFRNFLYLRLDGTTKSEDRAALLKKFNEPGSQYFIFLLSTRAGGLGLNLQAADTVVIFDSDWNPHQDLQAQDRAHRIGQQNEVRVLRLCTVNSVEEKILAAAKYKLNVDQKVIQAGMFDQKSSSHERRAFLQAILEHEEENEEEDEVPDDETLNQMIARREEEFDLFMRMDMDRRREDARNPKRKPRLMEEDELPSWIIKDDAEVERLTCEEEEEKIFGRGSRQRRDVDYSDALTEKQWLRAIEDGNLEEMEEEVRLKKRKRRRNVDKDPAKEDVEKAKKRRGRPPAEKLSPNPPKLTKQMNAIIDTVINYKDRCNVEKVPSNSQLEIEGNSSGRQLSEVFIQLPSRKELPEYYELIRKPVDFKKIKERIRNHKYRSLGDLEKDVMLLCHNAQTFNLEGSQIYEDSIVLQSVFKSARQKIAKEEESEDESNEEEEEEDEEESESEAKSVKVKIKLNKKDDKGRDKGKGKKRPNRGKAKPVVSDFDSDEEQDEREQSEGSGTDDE

Assay [13] can be described thus: Counterscreen for activators of the function of SWI/SNF related, matrix associated, actin dependent regulator of chromatin, subfamily a, member 2 (SMARCA2, BRM): Luminescence-based cell-based high throughput dose response assay to identify non-selective compounds using the VP16 reporter assay. It counts as functional.
Assay [14] deals with T6, Fructose-bisphosphate aldolase (Mycobacterium tuberculosis, UniProt P9WQA3).
T6 sequence (P9WQA3 whole entry): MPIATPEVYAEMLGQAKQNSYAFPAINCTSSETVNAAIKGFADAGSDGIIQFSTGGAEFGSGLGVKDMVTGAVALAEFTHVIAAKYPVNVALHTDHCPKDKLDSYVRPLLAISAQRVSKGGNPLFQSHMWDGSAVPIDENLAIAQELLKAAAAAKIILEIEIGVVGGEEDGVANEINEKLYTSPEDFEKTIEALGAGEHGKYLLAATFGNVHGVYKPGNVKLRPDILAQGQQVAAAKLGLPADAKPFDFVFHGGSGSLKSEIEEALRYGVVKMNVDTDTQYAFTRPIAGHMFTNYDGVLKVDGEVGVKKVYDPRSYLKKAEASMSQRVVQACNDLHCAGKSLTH
The assay is described as follows: Fluorescence-based biochemical high throughput dose response assay for inhibitors of the fructose-bisphosphate aldolase (FBA) of M. tuberculosis. It counts as functional.

Assay [15] can be described thus: luciferase reporter signal suppression in cells – H4 neuroglioma cells, luminescence, dose response (AID 1990). Format: functional, cell-based. On the technique in general: In a reporter assay the amount or activity of a reporter protein is the signal.
For assay [16], the system named is HEK293. As to the kind of experiment: inhibition of NOD1-driven NF-kB reporter – cell-based, luminescence, uHTS, primary screen (AID 1578). It counts as functional. The note with it: Homo sapiens.
In assay [17] the test system is HEK293. As to the kind of experiment: cells. Format: functional, cell-based. The note with it: Homo sapiens.
Assay [18] in a line: Luminescence Cell-Based Dose Response HTS to Identify Inhibitors of 5'UTR Stem-Loop Driven Prion Protein mRNA Translation in H4 Neuroglioblastoma Cells. [Related pubchem assays: 1827 (Project Summary), 1813 (Primary HTS)]. It counts as functional.
Assay [19] in a line: alpha-synuclein stem-loop luciferase translation blockers – H4 neuroglioma cells, luminescence, confirmation (AID 1988). Format: functional, cell-based.
Assay [20] concerns HEK293. The assay is described as follows: cells. It counts as functional, cell-based. The note with it: Homo sapiens. The source holds these as a separate data set.
In assay [21] the target is Nucleotide-binding oligomerization domain-containing protein 2 (Homo sapiens, UniProt Q9HC29). The assay is described as follows: inhibition of NOD2-driven NF-kB reporter – cell-based, luminescence, uHTS, HEK293 (AID 1566). It counts as functional.
Nucleotide-binding oligomerization domain-containing protein 2, sequence (Q9HC29 whole entry, the tested form may be a part): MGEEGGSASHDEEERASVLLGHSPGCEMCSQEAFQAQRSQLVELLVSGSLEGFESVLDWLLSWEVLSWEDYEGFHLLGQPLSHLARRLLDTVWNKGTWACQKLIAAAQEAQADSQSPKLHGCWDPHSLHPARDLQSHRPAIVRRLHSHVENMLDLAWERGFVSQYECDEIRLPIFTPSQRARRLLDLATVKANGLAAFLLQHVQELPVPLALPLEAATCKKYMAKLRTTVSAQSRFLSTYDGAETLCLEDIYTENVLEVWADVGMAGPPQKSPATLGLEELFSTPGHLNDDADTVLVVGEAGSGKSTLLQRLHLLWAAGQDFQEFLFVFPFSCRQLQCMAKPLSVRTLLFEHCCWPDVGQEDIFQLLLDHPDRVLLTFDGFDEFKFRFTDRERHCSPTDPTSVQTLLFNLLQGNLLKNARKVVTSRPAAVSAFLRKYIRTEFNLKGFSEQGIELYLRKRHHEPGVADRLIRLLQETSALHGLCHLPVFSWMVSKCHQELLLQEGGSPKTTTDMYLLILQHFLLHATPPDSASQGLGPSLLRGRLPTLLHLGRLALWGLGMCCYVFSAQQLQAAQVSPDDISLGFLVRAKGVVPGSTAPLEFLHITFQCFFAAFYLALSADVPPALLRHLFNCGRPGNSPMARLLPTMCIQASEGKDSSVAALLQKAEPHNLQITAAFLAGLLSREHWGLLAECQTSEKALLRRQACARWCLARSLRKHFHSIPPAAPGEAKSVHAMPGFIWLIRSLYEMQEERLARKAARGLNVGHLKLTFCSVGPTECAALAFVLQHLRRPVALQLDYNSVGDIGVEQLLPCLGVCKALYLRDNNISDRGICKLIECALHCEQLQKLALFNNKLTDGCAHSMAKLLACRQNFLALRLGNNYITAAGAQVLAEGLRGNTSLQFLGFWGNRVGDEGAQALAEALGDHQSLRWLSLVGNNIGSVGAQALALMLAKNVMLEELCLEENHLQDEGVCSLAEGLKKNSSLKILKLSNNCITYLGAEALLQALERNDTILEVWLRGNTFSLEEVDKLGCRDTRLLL
Assay [22] has as its system HEK293. As to the kind of experiment: NOD2 signaling inhibitors in MDP-stimulated cells, cell-based, uHTS, luminescence (AID 2001). The note with it: Homo sapiens. Format: functional.
Assay [23] has as its system HEK293. The assay is described as follows: cells. Format: functional, cell-based. The note with it: Homo sapiens. The source holds these as a separate data set.
Assay [24] concerns the target DNA dC->dU-editing enzyme APOBEC-3A (Homo sapiens, UniProt P31941). As to the kind of experiment: Dose Response confirmation of small molecule APOBEC3A DNA Deaminase Inhibitors via a fluorescence-based single-stranded DNA deaminase assay. [Related pubchem assays (depositor defined):AID493011, AID493024]. Format: functional.
For assay [25], the target named is DNA dC->dU-editing enzyme APOBEC-3G (Homo sapiens, UniProt Q9HC16). Format: functional.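 Further: Dose-response counterscreen measuring inhibition of APOBEC3G DNA deaminase activity, run while confirming APOBEC3A inhibitors.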
DNA dC->dU-editing enzyme APOBEC-3G, sequence (Q9HC16 whole entry): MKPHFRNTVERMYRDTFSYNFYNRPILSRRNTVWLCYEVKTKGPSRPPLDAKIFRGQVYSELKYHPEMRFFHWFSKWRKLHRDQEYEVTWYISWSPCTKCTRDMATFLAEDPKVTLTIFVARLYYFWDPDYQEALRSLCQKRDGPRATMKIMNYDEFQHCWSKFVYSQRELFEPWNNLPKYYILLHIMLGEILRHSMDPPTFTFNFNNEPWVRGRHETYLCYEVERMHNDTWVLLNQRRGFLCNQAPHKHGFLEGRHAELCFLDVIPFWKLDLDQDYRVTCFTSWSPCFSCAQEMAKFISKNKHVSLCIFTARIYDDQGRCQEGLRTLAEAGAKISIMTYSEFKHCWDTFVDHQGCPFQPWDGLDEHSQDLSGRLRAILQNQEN

Results on five compounds are retold here after ChEMBL document CHEMBL1201862, “PubChem BioAssay data set” (2004).

As a reminder, the IC50 is the point on the concentration scale where inhibition reaches its midpoint.

The source made the active and inactive calls.

T1 sequence (P09923 whole entry): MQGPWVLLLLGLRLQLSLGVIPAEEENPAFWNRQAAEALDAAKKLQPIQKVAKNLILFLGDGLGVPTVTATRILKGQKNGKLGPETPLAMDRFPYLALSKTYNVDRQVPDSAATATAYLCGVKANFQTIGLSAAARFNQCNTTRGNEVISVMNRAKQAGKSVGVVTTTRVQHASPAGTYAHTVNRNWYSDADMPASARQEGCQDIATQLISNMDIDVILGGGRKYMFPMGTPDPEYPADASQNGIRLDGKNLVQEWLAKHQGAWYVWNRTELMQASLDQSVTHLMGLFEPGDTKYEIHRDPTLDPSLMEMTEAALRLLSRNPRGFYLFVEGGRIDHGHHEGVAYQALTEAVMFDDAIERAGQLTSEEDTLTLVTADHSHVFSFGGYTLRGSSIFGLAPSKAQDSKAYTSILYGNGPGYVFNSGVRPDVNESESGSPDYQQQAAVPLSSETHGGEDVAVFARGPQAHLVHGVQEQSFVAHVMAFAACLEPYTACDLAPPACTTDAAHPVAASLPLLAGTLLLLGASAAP
DNA dC->dU-editing enzyme APOBEC-3A, sequence (P31941 whole entry): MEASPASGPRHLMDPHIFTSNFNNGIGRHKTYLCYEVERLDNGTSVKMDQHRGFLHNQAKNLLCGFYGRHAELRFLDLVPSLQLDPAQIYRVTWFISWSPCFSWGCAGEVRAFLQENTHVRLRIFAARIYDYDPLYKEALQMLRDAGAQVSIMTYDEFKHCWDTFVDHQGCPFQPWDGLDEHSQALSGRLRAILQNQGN
Intestinal-type alkaline phosphatase (Mus musculus, UniProt P24822), sequence (P24822 whole entry): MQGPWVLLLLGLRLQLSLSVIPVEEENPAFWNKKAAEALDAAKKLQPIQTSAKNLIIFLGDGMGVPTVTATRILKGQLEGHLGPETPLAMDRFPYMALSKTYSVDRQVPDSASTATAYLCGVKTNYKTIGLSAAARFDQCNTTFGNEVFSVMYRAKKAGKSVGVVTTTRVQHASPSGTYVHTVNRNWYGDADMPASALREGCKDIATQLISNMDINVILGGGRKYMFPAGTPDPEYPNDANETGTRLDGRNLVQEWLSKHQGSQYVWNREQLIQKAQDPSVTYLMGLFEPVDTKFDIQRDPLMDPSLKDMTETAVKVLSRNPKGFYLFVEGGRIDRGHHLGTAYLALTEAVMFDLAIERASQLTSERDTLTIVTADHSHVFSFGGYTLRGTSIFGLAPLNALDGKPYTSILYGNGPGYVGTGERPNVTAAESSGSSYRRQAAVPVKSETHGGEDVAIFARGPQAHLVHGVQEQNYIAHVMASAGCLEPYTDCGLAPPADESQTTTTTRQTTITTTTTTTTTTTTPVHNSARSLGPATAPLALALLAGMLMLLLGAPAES

With `Cc1cc(C(=O)NC2CC(C)(C)Cc3c2cnn3-c2ccccc2)[nH]n1` (stereo not given), the EC50 in [1] was 55.1 µM (active); in assay [2], 70.7 µM (active); in assay [3], 45.5 µM (active); in [4], 48.2 µM (active).

For the compound `COc1ccc(-c2nc(N)s[n+]2-c2ccccc2)cc1`, in [5], the IC50 is 1.25 µM (inactive).

For `COc1ccccc1-n1c(SCC(N)=O)nnc1-c1ccc(S(=O)(=O)N2CCCCC2)cc1`, the half-inhibitory concentration (IC50) was 5.36 µM (active) in assay [6], > 43.8 µM (not active) in assay [7], > 20 µM (inactive) in assay [8] and > 20 µM (inactive) in [9]. The EC50 in assay [10] is 12.7 µM (active).

Consider `Cc1cccn2c(=O)c3cc(C(=O)NC4CCCC4)c(=N)n(C4CCCCC4)c3nc12`, for which the IC50 is > 100 µM (inactive) in [11] and 0.469 µM (active) in [14]. For the same compound, the EC50 in assay [12] and in [13] was > 91.2 µM (inactive) throughout.

Turning to `CCCCCCCn1ccc(=N)cc1`, the EC50 in assay [15] was 13 µM (active); in [16], 6.12 µM (active); in [18], > 120 µM (not active); in assay [19], 14.8 µM (active); in [21], 8.15 µM (active). Besides, the IC50 is 5.72 µM (active) in assay [17]; 18.1 µM (active) in [20]; 6.34 µM (active) in assay [22]; > 20 µM (inactive) in assay [23]; 1.83 µM (active) in [24]; 2.51 µM (active) in assay [25].
